Several values for one entry are separate records, joined by “and”; a condition that tells them apart may be missing. Equal entries are not always repeated.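 Each compound was tested at five concentrations against cells in 96-well plates for 48 hours. GI50: concentration for 50% inhibition of growth. At the TGI there is no net growth.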

Data on 19 molecules can be found in PubChem BioAssay (NCI).

Test systems include HCC-2998 colon; XF 498 CNS; HOP-62 NSCLC; RPMI-8226 leukemia; NCI-H23 lung; KM20L2 colon; SR leukemia; SNB-75 CNS; DU-145 prostate; BT-549 breast.
Common to all, as to test: NCI-60 cell line screen, 48 h

Turning to `N#CC1(C#N)C2C=CC(c3coc4cccc2c34)C1(C#N)C#N` (centres undefined), the TGI with HCC-2998 colon is 30 µM; in the assay with XF 498 CNS, 15.3 µM; in the assay on HOP-62 NSCLC, 46.5 µM; in the assay with RPMI-8226 leukemia, 19.9 µM; in the assay with NCI-H23 lung, 36.9 µM; in the assay with KM20L2 colon, 35.5 µM. The TGI in the assay with SR leukemia worked out at 7.83 µM; in the assay with SNB-75 CNS it was 35.3 µM.
In the case of `O=C(CCn1[nH]c(=O)c(Cl)c(Cl)c1=O)NNC(=O)C[n+]1ccccc1`, the TGI in the assay with HCC-2998 colon, in the assay with XF 498 CNS, in the assay on HOP-62 NSCLC, in the assay on RPMI-8226 leukemia, in the assay with NCI-H23 lung and in the assay with KM20L2 colon was above 100 µM in each case. Moreover, the TGI in the assay on SNB-75 CNS is above 100 µM.
Regarding `CCOC(=O)c1cnc2c(ccc3ncccc32)c1NCCCN(CC)CC`, the TGI in the assay with HCC-2998 colon, in the assay with XF 498 CNS, in the assay on HOP-62 NSCLC, with RPMI-8226 leukemia, with NCI-H23 lung and in the assay on KM20L2 colon was above 100 µM throughout.
Take `CCOC(=O)C(CC/C=C\c1ccccc1)N1CCC[C@H]1C(=O)OC` (some centres undefined): the TGI in the assay on HCC-2998 colon, in the assay with XF 498 CNS, in the assay with HOP-62 NSCLC, in the assay on RPMI-8226 leukemia, with NCI-H23 lung and with KM20L2 colon was above 100 µM each time. The TGI in the assay with SR leukemia and with SNB-75 CNS was above 100 µM each time.
With `CC(=O)O[C@@]1(C)[C@@H](C)C(=O)O[C@@H]2CCN3CC=C(COC(=O)[C@]1(C)O)[C@H]23`, the TGI with HCC-2998 colon, with HOP-62 NSCLC, in the assay on RPMI-8226 leukemia, with NCI-H23 lung, with KM20L2 colon and with SR leukemia was above 100 µM in each case. The TGI in the assay with SNB-75 CNS was above 100 µM.
Turning to `CC1=C(O)/C(=C/C(C)CCC/C(C)=C/C=C/C(C)CCCc2ccoc2)OC1=O` (centres undefined), the TGI was 63 µM with HCC-2998 colon; 34.6 µM in the assay with XF 498 CNS; 59.6 µM in the assay on HOP-62 NSCLC; 59.3 µM in the assay with NCI-H23 lung; above 100 µM in the assay with KM20L2 colon; above 100 µM with SNB-75 CNS.
Regarding `Cc1cccc2c1CCC21OC(=O)c2c1ccc1ccccc21` (centres undefined), the TGI in the assay on HCC-2998 colon is above 100 µM; in the assay with HOP-62 NSCLC, above 100 µM; in the assay on NCI-H23 lung, 98.7 µM; in the assay on KM20L2 colon, above 100 µM; in the assay with SR leukemia it was 85.3 µM; in the assay on SNB-75 CNS it was above 100 µM.
Turning to `COC(=O)C12OCC34C(CC5C(C)C6=CC(=O)OC6=CC5(C)C3C(O)C1O)OC(=O)C(O)C24` (centres undefined), the GI50 in the assay on HCC-2998 colon is 75 nM; in the assay on XF 498 CNS, 60.9 nM and 344 nM; in the assay on HOP-62 NSCLC, 177 nM; in the assay on RPMI-8226 leukemia it was 33.3 nM; in the assay with NCI-H23 lung it was 156 nM; in the assay with KM20L2 colon, 638 nM. Also, the GI50 in the assay on SNB-75 CNS is 158 nM. In addition, the TGI in the assay with HCC-2998 colon was 0.347 µM and 0.676 µM; in the assay on XF 498 CNS it was 0.291 µM and 1.93 µM; in the assay with HOP-62 NSCLC, 0.704 µM and 3.54 µM; with RPMI-8226 leukemia, 0.116 µM and 0.25 µM; with NCI-H23 lung, 0.493 µM and 1.16 µM; in the assay with KM20L2 colon, 30.9 µM. Besides, in the assay with SNB-75 CNS, the TGI was 0.682 µM and 2.48 µM.
Turning to `Cn1c(N)nc(=O)c2c1N(C1OC(CO)C(O)C1O)CN2Cc1ccccc1` (centres undefined), the TGI in the assay on HCC-2998 colon, with XF 498 CNS, with HOP-62 NSCLC, in the assay with RPMI-8226 leukemia, in the assay with NCI-H23 lung and in the assay on KM20L2 colon was above 100 µM each time. The TGI with SR leukemia and in the assay with SNB-75 CNS was above 100 µM each time.
Take `COc1ccc2c3c(c(C(=O)c4ccccc4)oc13)CCC2`: the TGI in the assay on HCC-2998 colon is above 100 µM; with XF 498 CNS, above 100 µM; in the assay with HOP-62 NSCLC, above 100 µM; in the assay on RPMI-8226 leukemia, above 100 µM; in the assay with NCI-H23 lung, 41.4 µM; in the assay with KM20L2 colon, above 100 µM. The same molecule yielded a TGI in the assay with SNB-75 CNS above 100 µM.
`CC1=C(/C=C/C(C)=C/C=C/C(C)=C/C(=O)O)C(C)(C)CCC1`: the TGI is 66.8 µM in the assay with HCC-2998 colon; above 100 µM in the assay on XF 498 CNS; 66 µM in the assay on HOP-62 NSCLC; above 100 µM with DU-145 prostate; 57.7 µM in the assay with RPMI-8226 leukemia; 79.3 µM in the assay with NCI-H23 lung. The TGI in the assay with KM20L2 colon was above 100 µM; in the assay with SR leukemia, above 87.4 µM; in the assay with BT-549 breast, 63 µM; in the assay on SNB-75 CNS, above 100 µM.
For `COc1ccc2oc(C(=O)O)c3c2c1CCC3CCC(=O)O` (centres undefined), the TGI with HCC-2998 colon is above 100 µM; with XF 498 CNS, above 100 µM; with HOP-62 NSCLC, above 1 µM; in the assay with RPMI-8226 leukemia, above 100 µM; in the assay with NCI-H23 lung, above 100 µM; in the assay with SR leukemia it was above 100 µM. In addition, the TGI in the assay on SNB-75 CNS was above 100 µM.
With `O=C(O/N=C1/CCC/C1=C\c1ccccc1)c1ccc(Cl)c(Cl)c1`, the TGI in the assay with HCC-2998 colon, in the assay with HOP-62 NSCLC, with RPMI-8226 leukemia, with NCI-H23 lung, in the assay on KM20L2 colon and with SR leukemia was above 100 µM each time. For the same molecule, the TGI with SNB-75 CNS was above 100 µM.
Turning to `CC(=O)O[C@H](C[C@H](C(C)C)N(C)C(=O)[C@@H](NC(=O)[C@H]1CCCN1C)C(C)C)c1nc(C(=O)N[C@@H](Cc2ccccc2)C[C@H](C)C(=O)O)c(C)s1`, the GI50 was 2.52 nM in the assay on HCC-2998 colon; below 1.67 nM with HOP-62 NSCLC; 0.00224 µM with DU-145 prostate; below 1.67 nM with RPMI-8226 leukemia; 5.31 nM in the assay with NCI-H23 lung; below 1.67 nM in the assay with SR leukemia. Also, the GI50 in the assay on BT-549 breast and with SNB-75 CNS was below 1.67 nM in each case. For the same molecule, the TGI in the assay on HCC-2998 colon, with HOP-62 NSCLC, in the assay on DU-145 prostate, with RPMI-8226 leukemia, with NCI-H23 lung and in the assay with SR leukemia was above 16.7 µM in each case. Moreover, the TGI was 0.151 µM with BT-549 breast and above 16.7 µM in the assay with SNB-75 CNS.
Turning to `CSc1snc2sc3c(Cl)nnnc3c12`, the TGI was determined as 21.2 µM with HCC-2998 colon; 27.4 µM in the assay with XF 498 CNS; 31.9 µM in the assay with HOP-62 NSCLC; 56.2 µM in the assay on RPMI-8226 leukemia; 36 µM in the assay on NCI-H23 lung; 30.9 µM in the assay with KM20L2 colon. The molecule also gave a TGI in the assay on SNB-75 CNS of 23.7 µM.
On to `O=C(N/N=C1\C(=O)N(c2nccs2)C(=O)C(=O)C1c1nc2ccccc2s1)c1ccccc1O` (centres undefined), for which the TGI in the assay with HCC-2998 colon was above 100 µM; in the assay with XF 498 CNS, above 100 µM; in the assay with HOP-62 NSCLC, 90.4 µM; in the assay on RPMI-8226 leukemia it was above 100 µM; in the assay on NCI-H23 lung, above 100 µM; in the assay with KM20L2 colon, above 100 µM. The TGI in the assay on SNB-75 CNS is above 100 µM.
As to `O=C(CC(=O)c1cccc2ccccc12)C(=O)NC1C2CC3CC(C2)CC1C3` (centres undefined), the TGI in the assay on HCC-2998 colon, in the assay with XF 498 CNS, in the assay with HOP-62 NSCLC, with RPMI-8226 leukemia, in the assay on NCI-H23 lung and with KM20L2 colon was above 100 µM each time.
In the case of `COc1cc(-c2csc(NC(=O)Nc3ccc(C(F)(F)F)cc3)n2)cc(OC)c1OC`, the GI50 in the assay on HCC-2998 colon is 2710 nM; in the assay with HOP-62 NSCLC, 2010 nM; in the assay with DU-145 prostate, 3.22 µM; in the assay with RPMI-8226 leukemia it was 2260 nM; in the assay on NCI-H23 lung, 2480 nM; in the assay with SR leukemia, 2390 nM. For the same molecule, the values for the GI50 in the assay with BT-549 breast and in the assay on SNB-75 CNS were 2220 nM and 1430 nM, respectively. Also, the TGI in the assay with HCC-2998 colon stood at 9.34 µM; in the assay on HOP-62 NSCLC, 5.07 µM; in the assay with DU-145 prostate, 12.8 µM; with RPMI-8226 leukemia, 8.69 µM; in the assay on NCI-H23 lung it was 8.81 µM; in the assay on SR leukemia it was 6.79 µM. For the same molecule, the TGI in the assay on BT-549 breast is 6.94 µM; in the assay on SNB-75 CNS it was 5.52 µM.
For the molecule `CN1CCN(c2ccc(NC(=O)c3cncnc3Nc3ccc(OCc4ccccn4)c(Cl)c3)cc2)CC1`, the GI50 with HCC-2998 colon was 4220 nM; with HOP-62 NSCLC, 4310 nM; in the assay on DU-145 prostate, 4.28 µM; in the assay on RPMI-8226 leukemia, 1330 nM; in the assay with NCI-H23 lung it was 5070 nM; in the assay with SR leukemia it was 742 nM. For the same molecule, the GI50 in the assay with BT-549 breast was 5180 nM; in the assay with SNB-75 CNS, 4580 nM. Moreover, the TGI is 9.15 µM in the assay on HCC-2998 colon; 10.7 µM in the assay with HOP-62 NSCLC; 8.8 µM in the assay on DU-145 prostate; 6.7 µM with RPMI-8226 leukemia; 11.5 µM in the assay on NCI-H23 lung; 2.03 µM in the assay on SR leukemia. The results for the TGI in the assay with BT-549 breast and with SNB-75 CNS were 11.1 µM and 9.23 µM, respectively.
